Earlier results on 4 compounds are cited in patent US6905813B2, “Processing agent for silver halide color photosensitive material and processing method thereof” (Chugai Photo Chemical Co., Ltd., priority 2001, dated 2005).

Like-named read-outs stand apart in the source and are kept apart here.

[1] abbreviates: Table 5, additives of Example 3.
The mark [2] stands for this setting: Table 1, additives of Example 1.
Setting [3] is: Table 3, additives of Example 2.
The mark [4] stands for this setting: Table 7, additives of Example 4.

Turning to `Nc1ccccn1` [2-aminopyridine], the pKa (in general, the pH at which an ionisable group is half protonated) under setting [1] is 6.79.

With `NCCCCN` [1,4-diaminobutane], the pKa is, setting by setting: under setting [2], 9.44; under setting [3], 9.44; under setting [4], 9.44.

Take `O=S([O-])[O-].[Na+].[Na+]` [Sodium sulfite]: the pKa is, setting by setting: under setting [2], 7.19; under setting [3], 7.19; under setting [1], 7.19; under setting [4], 7.19.

`CC(N)CCN` (centres unmarked) [1,3-diaminobutane]: the pKa by setting is: under setting [2], 8.74; under setting [3], 8.74; under setting [4], 8.74.
